In EP0067711A2, “New 1-benzyl-3,4-dihydro-isoquinoline derivative” (CHINOIN Gyogyszer és Vegyészeti Termékek Gyára RT., priority 1981, dated 1982):

What was measured:
[1] = acute toxicity on mice; conditions: mouse, in vivo, po
Text: (§1) The acute toxicity of the compound of the Formula I is characterized by the data enumerated in Table 3.

[2] = acute toxicity on rats; conditions: rat, in vivo
Text: as §1

[3] = system: haemodynamic and cardiovascular system; assay: general effects on the haemodynamic and cardiovascular system in pentobarbital anaesthetized dogs; assay type: in vivo; parameters: A. vertebralis flow, Changed value: unit not given here; conditions: 2 mg/kg i.v.
[4] = system: electric fibrillation threshold of the auricle and ventricle; assay: antiarrhythmial effect: change of electric fibrillation threshold in chloralose-urethane anaesthetized cats; assay type: in vivo; conditions: 2 mg/kg i.v.
Experimental: The antiarrhythmial effect is determined on chloralose-urethane anaesthetized cats [500/300 mg/kg i.p.] by measuring the changes of the electric fibrillation threshold of the auricle and ventricle respectively [method of Szekeres, Méhes and Papp: Brit. 0. Pharmacol. 17, 167 (1961) and that of Szekeres and Papp: Hdb. exp. Pharmacol. 16/3, 131 (1975) respectively]. The general effects exerted on the haemodynamic and cardiovascular system are tested on pentobarbital anaesthetized dogs (35 mg/kg i.v.).

[5] = system: acute coronary insufficiency induced by vasopressine; assay: anti-angina activity: inhibition of vasopressine-induced acute coronary insufficiency (rise of T-wave on ECG), method of Papp and Szekeres; assay type: in vivo, rats belonging to the CFY strain; conditions: vasopressine 2 IU/kg i.v., pentobarbital anaesthetized CFY rats; papaverin = 1

SMILES: CCOc1ccc(CC2=NCCc3cc(OCC)c(OCC)cc32)cc1O [Formula I, 6,7-diethoxy-1-(4-ethoxy-3-hydroxy-benzyl)-3,4-dihydro-isoquinoline]
- LD50 ([1]; p.o. on mice ♀): 165 mg/kg
- LD50 ([1]; p.o. on mice ♂): 269 mg/kg
- LD50 ([2]; iv, i.v. on rats ♀): 24.9 mg/kg
- LD50 ([2]; iv, i.v. on rats ♂): 23 mg/kg
- LD50 ([2]; po, p.o. on rats ♀): 625 mg/kg
- LD50 ([2]; po, p.o. on rats ♂): 493 mg/kg
- A. carotis flow, Duration of effect [3]: 7 min
- A. carotis flow, Percental difference [3]: +27
- A. carotis resistance, Duration of effect [3]: 7 min
- A. carotis resistance, Percental difference [3]: -13
- A. femoralis flow, Duration of effect [3]: 3 min
- A. femoralis flow, Percental difference [3]: +44
- A. femoralis resistance, Duration of effect [3]: 3 min
- A. femoralis resistance, Percental difference [3]: -45
- A. vertebralis flow, Duration of effect [3]: 2 min
- A. vertebralis flow, Percental difference [3]: +51
- A. vertebralis resistance, Duration of effect [3]: 2 min
- A. vertebralis resistance, Percental difference [3]: -45
- Arterial blood pressure, Duration of effect [3]: 5 min
- Arterial blood pressure, Percental difference [3]: -22
- Contractibility of the left ventricle (dP/dt), Duration of effect [3]: 2 min
- Contractibility of the left ventricle (dP/dt), Percental difference [3]: -17
- Coronary flow, Duration of effect [3]: 16 min
- Coronary flow, Percental difference [3]: +36
- Coronary resistance, Duration of effect [3]: 15 min
- Coronary resistance, Percental difference [3]: -34
- Efficiency of cardial function, Duration of effect [3]: 6 min
- Efficiency of cardial function, Percental difference [3]: +45
- Frequence volume, Duration of effect [3]: 35 min
- Frequence volume, Percental difference [3]: +60
- Function of the left ventricle, Duration of effect [3]: 7 min
- Function of the left ventricle, Percental difference [3]: -20
- Heart frequence/min, Duration of effect [3]: 31 min
- Heart frequence/min, Percental difference [3]: -22
- Minute volume, Duration of effect [3]: 4 min
- Minute volume, Percental difference [3]: +11
- Myocardial oxygenization (O2 supply per O2 consumption), Duration of effect [3]: 30 min
- Myocardial oxygenization (O2 supply per O2 consumption), Percental difference [3]: +74
- Oxygen consumption of the left ventricle, Duration of effect [3]: 22 min
- Oxygen consumption of the left ventricle, Percental difference [3]: -29
- Total peripherial resistance, Duration of effect [3]: 5 min
- Total peripherial resistance, Percental difference [3]: -23
- Efficiency of cardial function, Changed value ([3]; average ± S.E., basic value 0.11 ± 0.02): 0.16 ± 0.02 mkg/ml/100 g
- Coronary resistance, Changed value ([3]; average ± S.E., basic value 1.16 ±0.06): 0.76 ± 0.06 Hgmm/ml/min/100 g
- Function of the left ventricle, Changed value ([3]; average ± S.E., basic value 1.24 ± 0.08): 0.99 ± 0.16 mkg/min
- Myocardial oxygenization (O2 supply per O2 consumption), Changed value ([3]; average ± S.E., basic value 1.70 ± 0.07): 2.95 ± 0.21
- A. carotis resistance, Changed value ([3]; average ± S.E., basic value 2.33 ± 0.23): 2.02 ± 0.32 Hgmm/ml/min
- A. vertebralis resistance, Changed value ([3]; average ± S.E., basic value 3.28 ± 0.33): 1.81 ± 0.17 Hgmm/ml/min
- A. femoralis resistance, Changed value ([3]; average ± S.E., basic value 4.84 ± 0.86): 2.66 ± 0.42 Hgmm/ml/min
- Frequence volume, Changed value ([3]; average ± S.E., basic value 5.5 ± 0.3): 8.8 ± 0.9 mL
- Oxygen consumption of the left ventricle, Changed value ([3]; average ± S.E., basic value 11.6 ± 0.9): 8.2 ± 1.2 ml/min/100 g
- A. femoralis flow, Changed value ([3]; average ± S.E., basic value 34 ± 7): 49 ± 10 mL/min
- A. vertebralis flow, Changed value ([3]; average ± S.E., basic value 43 ± 6): 65 ± 9
- A. carotis flow, Changed value ([3]; average ± S.E., basic value 70 ± 7): 89 ± 13 mL/min
- Coronary flow, Changed value ([3]; average ± S.E., basic value 95 ± 5): 129 ± 9 ml/min/100 g
- Arterial blood pressure, Changed value ([3]; average ± S.E., basic value 121 ± 5): 94 ± 4 Hgmm
- Heart frequence/min, Changed value ([3]; average ± S.E., basic value 146 ± 8): 114 ± 9 min⁻¹
- Minute volume, Changed value ([3]; average ± S.E., basic value 875 ± 42): 975 ± 34 mL/min
- Contractibility of the left ventricle (dP/dt), Changed value ([3]; average ± S.E., basic value 5105 ± 434): 4248 ± 865 Hgmm/sec
- Total peripherial resistance, Changed value ([3]; average ± S.E., basic value 10652 ± 991): 8185 ± 748 dyn. sec. cm^-5
- Arterial blood pressure, Duration of effect [4]: 9 min
- Arterial blood pressure, Percental difference [4]: -43
- Auricle fibrillation threshold, Duration of effect [4]: 11 min
- Auricle fibrillation threshold, Percental difference [4]: +58
- Ventricle fibrillation threshold, Duration of effect [4]: 13 min
- Ventricle fibrillation threshold, Percental difference [4]: +25
- Auricle fibrillation threshold, Changed value ([4]; average ± S.E., basic value 0.73 ± 0.10): 1.15 ± 0.11 mA
- Ventricle fibrillation threshold, Changed value ([4]; average ± S.E., basic value 2.07 ± 0.10): 2.58 ± 0.09 mA
- Arterial blood pressure, Changed value ([4]; average ± S.E., basic value 139 ± 5): 79 ± 8 Hgmm
- anti-angina activity related to that of papaverin [5]: 1.40
